ChEMBL document CHEMBL5050844 (2019)

Assays:
Type in all cases: functional
[1] = Induction of anti-CD3 antibodies-stimulated human T cell activation in immunocompetent mouse assessed fold increase in IFN-gamma secretion at 90 mg/kg, ip administered thrice a day
[2] = Induction of anti-CD3 antibodies-stimulated human T cell activation in immunocompetent mouse assessed fold increase in TNFalpha secretion at 90 mg/kg, ip administered twice a day
[3] = Induction of anti-CD3 antibodies-stimulated human T cell activation in immunocompetent mouse assessed fold increase in IL-2 secretion at 90 mg/kg, ip administered thrice a day
[4] = Induction of anti-CD3 antibodies-stimulated human T cell activation in immunocompetent mouse assessed fold increase in TNF-alpha secretion at 90 mg/kg, ip administered thrice a day
[5] = Induction of anti-CD3 antibodies-stimulated human T cell activation in immunocompetent mouse assessed fold increase in IL-2 secretion at 90 mg/kg, ip administered twice a day
[6] = Induction of anti-CD3 antibodies-stimulated human CD8+ T cell activation in immunocompetent mouse assessed fold increase in CD25 expression at 90 mg/kg, ip administered twice a day
[7] = Induction of anti-CD3 antibodies-stimulated human T cell activation in immunocompetent mouse assessed fold increase in IFN-gamma secretion at 90 mg/kg, ip administered twice a day
[8] = Induction of anti-CD3 antibodies-stimulated human CD8+ T cell activation in immunocompetent mouse assessed fold increase in CD25 expression at 45 mg/kg, po administered twice a day
Further: reference of the scale not given here.

Compound | fold change (FC) [1] | fold change (FC) [2] | fold change (FC) [3] | fold change (FC) [4] | fold change (FC) [5] | fold change (FC) [6] | fold change (FC) [7] | fold change (FC) [8]
C[C@@H](Sc1nncn1C)c1cccc(NC(=O)c2cccc(C(F)(F)F)n2)c1 | <1 | 1 | <1 | <1 | <1 | <1 | <1 | 
Cc1cc(C(=O)Nc2cccc(C3(Cc4nncn4C)COC3)c2)nc(C2CC2)n1 |  |  |  |  |  |  |  | 1
C[C@H](Sc1nncn1C)c1cccc(NC(=O)c2cccc(C(F)(F)F)n2)c1 | 2.01 | >2.5 | >2.5 | >2.5 | >2.5 | <1 | 1 | 
Cn1cnnc1CC1(c2cccc(N3Cc4c(cc(CN5CCC6(CC6)C5)cc4C(F)(F)F)C3=O)c2)COC1 |  |  |  |  |  |  |  | 1
